Where a SMILES comes first, the peptide text is derived from it. Primed or numbered codes have the meaning given here. The star is where a group is joined. PEG12′ = C-terminal PEG12 polyethylene glycol (PEGylation) moiety, followed by a C-terminal amide; 5FAM = O=C1OC2(c3ccc(O)cc3Oc3cc(O)ccc32)c2ccc(C(=O)*)cc21
Assays:
[1] = system: human microvessels; assay: ACh-induced dilation of isolated human microvessels with or without ANG II challenge; conditions: for protection of ACh-induced vasodilation from ANG II: overnight pre-treatment, ANG II 10 nM 30 min
Experimental: (§1) Microvessels were dissected from surgical discard tissues, predominantly consisting of adipose. Only vessels with a diameter of less than 300 micrometers were selected for further study. All microvessels were obtained from discarded surgical tissues, in accordance with an Institutional Review Board approved protocols (PRO00000114, PRO00010828, PRO00001094) at the Medical College of Wisconsin, Milwaukee, Wis.
(§2) After dissection, vessels were incubated overnight in complete endothelial cell media, supplemented with 5% fetal bovine serum (Lonza) with or without peptides as described. Following overnight incubation, peptides were washed out and vessels were cannulated and transferred to physiological salt solution. A video microscopy setup enabled monitoring of vessels in real time. Vessels were pre-constricted with endothelin-1 (ET-1) at a dose range of 0.1-1 nM. Only vessels capable of constricting at least 20% from baseline were included in the study. Flow-mediated dilation (FMD) and Ach-induced dilation were then evaluated, followed by evaluation of endothelium-independent dilation to papaverin. After establishing this baseline, vessels were pre-constricted again with ET-1 and dilator curves repeated in the presence of Angiotensin II (ANG II), as described below.
(§3) Baseline vessel parameters, including ability to dilate in response to FMD, as described above were assessed. Following assessment, vessels were treated with ANG II at a final concentration of 10 nM for 30 minutes before FMD and response to ACh was re-assessed.

[2] = system: human microvessels; assay: Flow-mediated dilation (FMD) of isolated human microvessels with or without ANG II challenge; conditions: for baseline vessel constriction, % of maximum diameter: after 10 minutes of ET-1 treatment; for protection of flow-mediated vasodilation from ANG II: overnight pre-treatment, ANG II 10 nM 30 min
Experimental: as §1, §2
FMD was evaluated by adjusting the heights of two reservoirs in equal and opposite directions to generate flow by altering vessel central pressure. After each change in pressure gradient, vessel diameter was measured and assessed using video microscopy. Prior to measuring FMD, all vessels studied were pre-constricted using endothelin-1.
as §3

[3] = system: human microvessels; assay: Uptake of 5-FAM labeled peptide by isolated human microvessels (microscopy); conditions: 10 uM, 8 h
Experimental: (§4) FIGS. 2A-2B. (A) Dissected human microvessels are shown. The top panels are brightfield images, while the bottom three panels are images of the same vessels under laser excitation with a filter to visualize emission from 5-FAM. Vessels were treated with 5-FAM labeled peptide (nucXTERT-W) at a 10 uM concentration for 8 hours (h), or left untreated (control). (B) H1299 non-small cell lung carcinoma cells were seeded onto slides and treated with 0, 50, or 100 μM 5-FAM labeled nucXTERT-W for 8 h. DAPI=blue; 5-FAM labeled peptide=green.
Peptide synthesis was conducted by GeneMed Synthesis (San Antonio, Tex.). All peptide sequences were verified by mass spectrometry, and were only used at a purity of greater than 95%. Lyophilized peptides were stored at −20 degrees Celsius. Given the charge properties of the peptides used in these studies, phosphate buffered saline (PBS) was selected as the solvent of choice to dissolve all peptides used. […]
One of the first hurdles that required consideration when evaluating the ability of novel peptides to alter telomerase localization is their ability to be internalized by living tissues. nucXTERT was labeled with 5-carboxyfluorescein (5-FAM). Isolated human microvessels incubated with the 5-FAM labeled peptide were analyzed by microscopy. […]

[4] = system: H1299 non-small cell lung carcinoma cells; assay: Uptake of 5-FAM labeled peptide by H1299 cells (microscopy); type: cell-based, human; conditions: 50 or 100 μM, 8 h
Experimental: as §4
The NCI-H1299 cell line was used for the cell culture experiments described in this manuscript. Cells were cultured in RPMI (Invitrogen) supplemented with 10% fetal bovine serum (Sigma).
One of the first hurdles that required consideration when evaluating the ability of novel peptides to alter telomerase localization is their ability to be internalized by living tissues. nucXTERT was labeled with 5-carboxyfluorescein (5-FAM). Isolated human microvessels incubated with the 5-FAM labeled peptide were analyzed by microscopy. Robust signal is present in vessels pulsed with the peptide, while vessels not treated with peptide have no signal. […] Since peptide is taken up by vessels, it was possible to study the effect of peptide treatment on vessel physiology, using human microvessels as described in the methods. […]

[5] = system: human microvessels from individuals with coronary artery disease (CAD); assay: Mechanism of FMD (L-NAME / PEG-Catalase) in microvessels from donors with coronary artery disease; conditions: vessels pretreated with peptide
Experimental: (§5) Live human microvessels were dissected from adipose from individuals with clinically confirmed coronary artery disease (CAD). Vessels were treated with nucXTERT in the presence of either vehicle or L-NAME or PEG-Catalase. Response to pressure gradient (flow) stimulus was evaluated. Microvessels from the adipose of healthy human donors was treated with either vehicle or mitoXTERT with or without NG-nitro-L-arginine methyl ester (L-NAME) or PEG-Catalase. The ability of the vessels to dilate in response to a pressure gradient (flow) was assessed.
(§6) Dependence of vessels on NO versus hydrogen peroxide signaling in dilation was assessed using the pharmacologic agents Nw-nitro-L-arginine methyl ester (L-NAME; 100 μmol/L) and polyethylene glycol-catalase (PEG-catalase; 500 U/mL), respectively, where described.
At baseline, these vessels respond to vasodilatory stimuli through the use of H2O2 as a signaling mechanism to enable dilation. Treatment of vessels with PEG-Catalase, a scavenger of H2O2 effectively attenuates vasodilation. […] In vessels from subjects with CAD, H2O2 represents the dominant vasodilator.

[6] = system: ANG II induced endothelial dysfunction; assay: In vivo ANG II infusion model of hypertension and endothelial dysfunction; set-up: species or system mice
Experimental: Mice were treated with commonly used stressors to induce hypertension and endothelial dysfunction. The fast pressor dose of ANG II (1000 ng/kg/min) was infused via osmotic mini-pump for 14 days. A subgroup of animals was co-treated with nucXTERT (30 μg/day via osmotic mini-pump) in addition to ANG II, for the same duration and using the same delivery system. Curves were compared to historic controls (vehicle). […] Smooth muscle-dependent dilation in response to vasodilator papaverin was not effected (data not shown). * P<0.05 vs. Vehicle one way ANOVA RM, N=5).
To test in vivo effects of nucXTERT mice were treated with commonly used stress to induce hypertension and endothelial dysfunction. The fast pressor dose of ANG II (1000 ng/kg/min) was infused via osmotic minipump for 14 days. A subgroup of animals was co-treated with nucXTERT (30 μg/day via osmotic mini pump) in addition to ANG II, for the same duration and using the same delivery system. Curves were compared to historic controls (vehicle). […] Smooth muscle dependent dilation to papaverin was not effected (data not shown).

[7] = system: human microvessels of healthy donors; assay: Mechanism of FMD (L-NAME / PEG-Catalase) in microvessels from healthy (non-CAD) donors
Experimental: as §5
FIGS. 7A-7C show dose titration of PEGylated nucXTERT-E in isolated vessel studies. nucXTERT with S→E substitution was PEGylated at the C-terminus to increase bio stability and cell permeability. Effective doses from 10 μM to 1 nM were tested. PEGylated peptide could be titrated down to 1 nM with vascular protective effects. […] N=3-4.
as §6

[8] = 30 μg/day via osmotic mini pump, 14 days, ANG II 1000 ng/kg/min

RRRGGEASRSLPLPKRPRR (phosphomimetic nucXTERT-E) [phosphomimetic containing a glutamic acid substitution at position 227]
protection of ACh-induced vasodilation from ANG II [1]: prevents ANG II-induced endothelial dysfunction | baseline vessel constriction, % of maximum diameter [2]: 48±18% | protection of flow-mediated vasodilation from ANG II [2]: prevents ANG II-induced endothelial dysfunction

CC(C)C[C@H](NC(=O)[C@H](CO)NC(=O)[C@H](CCCNC(=N)N)NC(=O)[C@H](CO)NC(=O)[C@H](C)NC(=O)[C@H](CO)NC(=O)CNC(=O)CNC(=O)[C@H](CCCNC(=N)N)NC(=O)[C@H](CCCNC(=N)N)NC(=O)[C@H](CCCNC(=N)N)NC(=O)c1ccc2c(c1)C(=O)OC21c2ccc(O)cc2Oc2cc(O)ccc21)C(=O)N1CCC[C@H]1C(=O)N[C@@H](CC(C)C)C(=O)N1CCC[C@H]1C(=O)N[C@@H](CCCCN)C(=O)N[C@@H](CCCNC(=N)N)C(=O)N1CCC[C@H]1C(=O)N[C@@H](CCCNC(=N)N)C(=O)N[C@@H](CCCNC(=N)N)C(=O)O [5-FAM labeled peptide] (5FAM-RRRGGSASRSLPLPKRPRR-OH; N-terminus and C-terminus assumed)
5-FAM signal in vessels pulsed with peptide (uptake by living tissue) [3]: Robust signal | uptake of labeled peptide into cells [4]: effectively traffics into the cell

RRRGGAASRSLPLPKRPRR (phospho-deficient nucXTERT-A)
protection of ACh-induced vasodilation from ANG II [1]: does not protect vessels from attenuation of vasodilator capacity | baseline vessel constriction, % of maximum diameter [2]: 53±12% | protection of flow-mediated vasodilation from ANG II [2]: does not protect vessels from attenuation of vasodilator capacity

RRRGGSASRSLPLPKRPRR (listed as Homo sapiens) [nucXTERT]
protection of ACh-induced vasodilation from ANG II [1]: not impacted by ANG II treatment | effect of PEG-Catalase on dilation responses in CAD vessels [5]: no longer inhibits dilation responses | main mechanism of FMD in CAD vessels [5]: NO is restored as the main mechanism of FMD | FMD under ANG II [6, 8]: prevented onset of ANG II induced endothelial dysfunction | agonist (ACh) induced endothelium-dependent dilation under ANG II [6, 8]: prevented onset of ANG II induced endothelial dysfunction | smooth muscle dependent dilation to papaverin ([6]; data not shown): not effected | protection of flow-mediated vasodilation from ANG II [2]: not impacted by ANG II treatment

MPRAPRCRAVRSLLRSHYRE (listed as Homo sapiens) [mitoXTERT, decoy peptide containing regions of the telomerase MLS]
protection of ACh-induced vasodilation from ANG II [1]: no protection of the endothelium from ANG II stress | mechanism of dilation in healthy vessels ([7]; treated with peptide, with or without L-NAME or PEG-Catalase): from NO-mediated dilation to H2O2-dependent dilation | protection of flow-mediated vasodilation from ANG II [2]: no protection of the endothelium from ANG II stress

Ac-CGGRRRGGEASRSLPLPKRPRR-peg12-amide (Ac-CGGRRRGGEASRSLPLPKRPRR-{PEG12′-NH2}) [PEGylated peptide, nucXTERT with S→E substitution PEGylated at the C-terminus]
mechanism of FMD in non-CAD vessels (L-NAME inhibitable) ([7]; non-CAD vessels): did not alter | lowest dose with vascular protective effects (dose titration) ([2]; doses from 10 μM to 1 nM tested): 1 nM | protection of flow-mediated vasodilation from ANG II [2]: protected against ANG II induced endothelial dysfunction

C/C(=C\C(=O)Nc1ccccc1C(=O)O)c1ccc2ccccc2c1 [BIBR1532, reference compound]
vasodilation in response to acetylcholine ([1]; overnight treatment, no ANG II): effectively eliminates vasodilation in response to acetylcholine | vasodilation in response to flow stimulus ([2]; overnight treatment, no ANG II): continue to dilate in response to flow stimulus

From patent US10858397B2, “Peptide inhibitors of telomerase translocation and therapeutic uses thereof” (THE MEDICAL COLLEGE OF WISCONSIN, INC., priority 2015, dated 2020)
